The values that follow come from US6893829B2, “Human leukocyte 12-lipoxygenase and its role in the pathogenesis of disease states” (City of Hope, priority 1992, dated 2005).

The assay has as its system leukocyte 12-LO mRNA in HSMC. In words: 12-LO mRNA expression in HSMC (RT-PCR). It counts as cell-based, human. As to conditions: AII 10^−7 mol/L. The text has this:
FIGS. 5A and 5B illustrate the regulation of leukocyte 12-LO mRNA levels by AII in HSMC using RT-PCR. FIG. 5A is the autoradiogram of the blot hybridized with 12-LO oligonucleotide probe. FIG. 5B is etidium bromide stained agarose gel. […] RNA samples were amplified for 40 cycles with leukocyte 12-LO primers or GAPDH primers.
Total RNA from cultured HSMC, HAEC and fresh MO was extracted with guanidiumthiocyanate-phenol-chloroform using RNAzol (Cinna/Biotecx Laboratories International Inc., Texas). Some RNA samples were treated by RNAse-free DNAse. 3 microgram of total RNA was mixed with the PCR buffer (10 mmol/L Tris-HCl, pH 8.3, 50 mmol/L KCl, 1.5 mmol/L MgCl2, and 0.001% gelatin), 200 μmol/L of each of the four deoxynucleotide triphosphates, 25 pmol each of 5′- and 3′-primers, 2 U Avian Myeloblastosis Virus reverse transcriptase (20 U/μl; Life Sciences, St. Petersburg, Fla.), and 2.5 U Taq polymerase (Perkin Elmer Cetus, Norwalk, Conn.) in a final vol of 50 μl. In some reactions, 5 pmol of each 5′- and 3′-primer of β2 macroglobulin or GAPDH were added as an internal standard. The samples were placed in a thermal cycler at 37° C. for eight minutes for the RT reaction to proceed. Then conditions used for PCR were a denaturation step at 94° C. for one-minute, annealing at 50° C. for two minutes, and extension at 72° C. for two minutes for 20-40 cycles. Blank reactions with no RNA template were carried out through the RT and PCR steps. […]
20 μl aliquots of the PCR products were subjected to electrophoresis in a 1.8% agarose gel in Tris acetate-EDTA buffer. […] Blots were quantitated using a computerized video densitometer.
In order to evaluate the specific expression and regulation of 12-LO mRNA in HSMC, applicants used a RT-PCR assay that exclusively amplifies the leucocyte type of 12-LO. […] When PCR conditions were used that were specific for either the platelet type 12-LO or human 15-LO no specific RNA band was detected (data not shown). […]

With “Angiotensin II (DRVYIHPF; Angiotensin-2; UniProt P01019 25-32, looked up) [AII, peptide hormone, added to cells as stimulus]”, the “incubation time at which 12-LO mRNA induction starts” value came to 12 h and the “incubation time of maximum 12-LO mRNA induction” value is 36 h. For the setting “serum deprived HSMC”, the “leukocyte type 12-LO mRNA expression” value is recorded as “markedly upregulated”.
